Here are results for seven molecules from patent US20190231793A1, “USE OF HARRINGTONINES IN THE TREATMENT OF BREAST CANCER, IN PARTICULAR TRIPLE-NEGATIVE BREAST CANCER” (priority 2016, published 2019).

The conditions of test [1]: cytotoxic = toxicity for tumor cells in culture; anticancer = data obtained in clinical trials; cited from earlier work.
Test [2] relates to MDA-MB-231. Briefly: Apoptosis by flow cytometry (FITC Annexin V). Format: cell-based. The settings on record: regardless of concentration or incubation time. How it is done: (§1) Cell cycle and apoptosis: the number of cells in different phases of the cell cycle or in apoptosis was determined by flow cytometry using FITC Annexin V Apoptosis Detection Kit 1 (BD Biosciences) and following the manufacturer's recommendations. Briefly, 3×10^4 cells of each line were seeded in 6-well plates and, after 24 h resting, treated with increasing concentrations of HHT for 6-72 h, then washed and incubated with propidium iodide and or with FITC annexin V). The fluorescence was measured using a BD LSH II cytofluorometer (BD Biosciences).

The test system of test [3] is MDA-MB-468. Briefly: Apoptosis by flow cytometry (FITC Annexin V). The note with it: increasing concentrations, 6-72 h. The test is classed as cell-based. How it is done: as §1
For orientation: A flow cytometer gives signals particle by particle.

For test [4], the system named is MDA-MB-157. In words: Apoptosis by flow cytometry (FITC Annexin V). The test is classed as cell-based. The settings on record: increasing concentrations, 6-72 h. On the procedure:
as §1

The test system of test [5] is CAL-51. In words: Apoptosis by flow cytometry (FITC Annexin V). The test is classed as cell-based. The settings on record: increasing concentrations, 6-72 h. On the procedure: as §1
The next test concerns MDA-MB-231 xenograft. In words: In vivo study on MDA-MB-231 triple negative breast tumor xenograft. The arrangement: species or system Swiss nudes immuno-depressed mice (nu/nu). The settings on record: 1 mg of HHT (as salt) per kg subcutaneously twice daily for 8 days; difference between day 0 and day 10; control group increased 20-30%. How it is done: The efficacy of homoharringtonine in vivo on xenografts of the triple-negative breast cancer line (MDA-MB-231), was performed on Swiss nudes immuno-depressed mice (nu/nu), […]. −12 weeks. The tumor was grafted in 16 animals, by injecting 5×10^6 cells of the tumor strain, subcutaneously in the dorsal region, until a tumor volume of 200-300 mm 3 was obtained. 8 mice received 1 mg of HHT (as salt) per kg subcutaneously twice daily for 8 days. The control group (7 mice) received only physiological saline in the same dosage as HHT. Mice were sacrificed 3 days after stopping treatment, recovered xenografts, and measured tumor size. The tissues were then formalin-fixed and paraffin-embedded for subsequent histological analyzes.

Test [6] relates to apoptosis regulatory proteins in MDA-MB-231. In words: Western blot, expression of apoptosis regulatory proteins in line MDA-MB-231. The settings on record: 100 nM HHT. Format: cell-based. On the procedure: (§2) Western blot: 5×10^5 cells, in 10 ml of medium, were inoculated in the 100 mm Petri dishes. After 24 hours of rest, the cells were incubated with 100 nM of HHT for different times, staggered for 2 hours and 48 hours. Then, the cells were washed and lysed directly into the dishes (without trypsinization) using RIPA buffer (Pierce-ThermoScientific), containing a mixture of protease inhibitors (Sigma). The protein concentration was determined by the method of Bradford. Protein electrophoresis was performed in 12-30% polyacrylamide gels. After transfer to the PVDF membrane, the revelation was carried out by ECL Plus (Amersham).

The test system of test [7] is MDA-MB-231. Briefly: Cell viability (SRB), inhibition of cell proliferation. Format: cell-based. The settings on record: Homo sapiens; for viability at 0.05 µM / viability at 0.1 µM: read-out: viable fraction (Fv=% of viable cells). On the procedure: (§3) MDA-MB-468 (PTEN, RB1, SMAD4, mutated TP53, amplified EGFR/ERBB1) and MDA-MB-231 (highly metastatic, without alteration of PI3K-Akt-mTOR; KRAS, BRAF, CDKN2A, PDGFRA, (NF2, Mutated TP53) were cultured in Liebowitz's medium+10% FCS+200 μg/ml gentamycin, in a CO2-free atmosphere
(§4) Drug: commercial HHT (Sigma-Aldrich), purified by recrystallization according to Liu's technique [U.S. Pat. No. 62,073, 14 May 1987], was provided free of charge by LeukePharma (Le Mans, France). The stock solution of 20 mM HHT citrate was obtained by dissolution in citric acid (Sigma-Aldrich), in equimolar amount or by direct dissolution of the crystalline homoharringtonine salt in sterile purified water. The following dilutions of this stock solution were performed using sterile PBS buffer. All of the solutions was stored at −80° C.
(§5) Cell viability: The cells were seeded in the 96-well plates at the concentration of 5000 cells/well (3.3×10^4/ml) for the MDA-MB-lines, and at the concentration of 1000 cells/well (6.6×10 3 ml) for CAL-51. After 24 hours of rest, at the confluence of 50-60%, the cells were treated with increasing concentrations of HHT for 24 h, 48 h and 72 h. After washing twice with sterile PBS and 48 h rest, the cells were fixed with trichloroacetic acid. After the addition of […] (SRB), the absorbance was measured at 540 nm (Multiskan™ FC plate photometer, Thermo Scientific). IC50s were calculated by CompuSyn (Chou & Talalay, ComboSyn Inc., Paramus, N.J., USA).

The test system of test [8] is MDA-MB-468. Described as above. The test is classed as cell-based. On the procedure:
as §3, §4, §5

The next test has as its system Mcl-1. In words: Western blot, expression of apoptosis regulatory proteins. The settings on record: 100 nM HHT; all lines analyzed except MDA-MB-231 (CAL-51, MDA-MB-468, MDA-MB-157). The test is classed as cell-based. How it is done:
as §2
Background: In western blotting, separated proteins are transferred to a membrane and probed.

A further test concerns survivin. The test is described as above. The test is classed as cell-based. The note with it: 100 nM HHT; CAL-51; same effect as for Mcl-1 (very fast and strong drop). How it is done:
as §2

In a further test the test system is XIAP. The test is described as above. The test is classed as cell-based. The settings on record: 100 nM HHT; compared with Mcl-1. On the procedure: as §2
Test [9] relates to MDA-MB-157. In words: Cell viability (SRB), inhibition of cell proliferation. Format: cell-based. On the procedure: (§6) Cell Lines: CAL-51 (PIK3CA mutated) and MDA-MB-157 (without apparent genomic alteration of the PI3K-AKT-mTOR axis (NF1, TP53 mutated) were cultured in DMEM+10% FCS+200 μg/ml gentamicin, in humidified atmosphere, at 5% CO 2.
as §4, §5

Test [10] relates to CAL-51. The description is as above. Format: cell-based. How it is done: as §6, §4, §5
Test [11] relates to MDA-MB-231. Briefly: Cell cycle by flow cytometry. The test is classed as cell-based. The settings on record: MDA-MB-231, 48 hours, 20 nM or 50 nM HHT. How it is done: as §1
Test [12] deals with MDA-MB-468. Briefly: Cell cycle by flow cytometry. The test is classed as cell-based. The note with it: MDA-MB-468, 48 hours, 20 nM or 50 nM HHT. How it is done: as §1
The subject of test [13] is MDA-MB-157. In words: Cell cycle by flow cytometry. The settings on record: MDA-MB-157, 48 hours, 50 nM HHT. The test is classed as cell-based. How it is done:
as §1

Test [14] relates to CAL-51. Briefly: Cell cycle by flow cytometry. The settings on record: CAL-51, 48 hours, 20 nM HHT. Format: cell-based. On the procedure: as §1
Setting [15] is: 24 h, 48 h, 72 h, regardless of the concentrations (p>0.05).
Setting [16] is: Homo sapiens, 24 hours, range given for 3 out of 4 lines analyzed.

Like-named read-outs stand apart in the source and are kept apart here.

As to `COC(=O)CC(O)(CCCCC(C)(C)O)C(=O)OC1C(OC)=CC23CCCN2CCc2cc4c(cc2C13)OCO4` (stereo not shown) [(1e), bishomoharringtonine], in test [1], the Activity entry was “none”.
Regarding `COC(=O)CC(O)(CC(C)(C)O)C(=O)OC1C(OC)=CC23CCCN2CCc2cc4c(cc2C13)OCO4` (stereo not shown) [(1c), norharringtonine], the Activity entry in test [1] is reported as “none”.
In the case of `COC(=O)C[C@](O)(CCC(C)(C)O)C(=O)O[C@@H]1C(OC)=C[C@]23CCCN2CCc2cc4c(cc2[C@H]13)OCO4` [(1a), harringtonine], the Activity result in test [1] is given as “anticancer”.
Turning to neoharringtonine [(1g)], the Activity entry in test [1] is “cytotoxic”.
Take `COC(=O)C[C@](O)(CCC(C)C)C(=O)O[C@@H]1C(OC)=C[C@]23CCCN2CCc2cc4c(cc2[C@H]13)OCO4` [(1d), deoxyharringtonine]: in [1], the Activity result is recorded as “anticancer”.
By IC50 is commonly meant the point on the concentration scale where inhibition reaches its midpoint. As to `COC(=O)C[C@](O)(CCCC(C)(C)O)C(=O)O[C@@H]1C(OC)=C[C@]23CCCN2CCc2cc4c(cc2[C@H]13)OCO4` [HHT, homoharringtonine], the “effect on apoptosis (% of cells in early and late apoptosis)” value was “no significant apoptosis was observed” with MDA-MB-231 [2]; “induces apoptosis of CAL-51, MDA-MB-468 and MDA-MB-157 cells in a concentration and time dependent manner” in the test with MDA-MB-468 [3]; “induces apoptosis of CAL-51, MDA-MB-468 and MDA-MB-157 cells in a concentration and time dependent manner” with MDA-MB-157 [4]; “induces apoptosis of CAL-51, MDA-MB-468 and MDA-MB-157 cells in a concentration and time dependent manner” in the test with CAL-51 [5]. Further, in the test on MDA-MB-231 xenograft, the “decrease in tumor volume” value is listed as 20 to 60%. Further, in [1], the Activity result was “anticancer”. For the same molecule, the “level of apoptosis regulatory proteins” value in [6] is reported as “no effect”. The viability at 0.05 µM in the test with MDA-MB-231 [7] (MDA-MB-231, 24 h) amounted to 58.1 ± 14.5%; in the test with MDA-MB-231 [7] (MDA-MB-231, 72 h), 25.9 ± 2.4%. Further, the viability at 0.1 µM in the test with MDA-MB-231 [7] (MDA-MB-231, 24 h) was determined as 41.7 ± 13.3%; in the test on MDA-MB-231 [7] (MDA-MB-231, 72 h) it was 18.7 ± 4.8%. Further, the half-inhibitory concentration (IC50) with MDA-MB-231 [7] (MDA-MB-231, 24 hours) is 80.5 nM; in the test with MDA-MB-468 [8] (setting [16]), 15.9 to 21.3 nM; in the test on MDA-MB-157 [9] (setting [16]), 15.9 to 21.3 nM; with CAL-51 [10] (setting [16]), 15.9 to 21.3 nM. Moreover, the “effect on proliferation versus incubation time” value in the test on MDA-MB-468 [8] (setting [15]), in the test on MDA-MB-157 [9] (setting [15]) and with CAL-51 [10] (setting [15]) was “independent of the incubation time” each time. In addition, in the test on Mcl-1, the “level of Mcl-1” value was “very fast and strong drop”. Further, in the test with survivin, the level of survivin entry is recorded as “same effect”. Also, in the test on XIAP, the “reduction in the XIAP rate” value is “more modest and occurred later”. The “effect on the cell cycle” value was “stopped in the G2/M phase” in the test with MDA-MB-231 [11]; “stopped in the G2/M phase” in the test on MDA-MB-468 [12]; “accumulation of CAL-51 and MDA-MB-157 cells in Set GO/G1 phase” with MDA-MB-157 [13]; “accumulation of CAL-51 and MDA-MB-157 cells in Set GO/G1 phase” in the test with CAL-51 [14].
For the molecule `COC(=O)[C@@H](O)[C@](O)(CCC(C)C)C(=O)O[C@@H]1C(OC)=C[C@]23CCCN2CCc2cc4c(cc2[C@H]13)OCO4` [(1f), isoharringtonine], the Activity entry in test [1] is recorded as “none”.
